Each structure is given as a SMILES string.

This is an account of results in article PMC11530802, “Evolution, structure, and drug-metabolizing activity of mammalian prenylcysteine oxidases” (The Journal of Biological Chemistry, 2024).

In this test the target is T1, PCYOX1 (mammalian ancestor).
T1 construct: mammalian ancestor's PCYOX1 (26-502), without signal peptide, six histidine N-terminal tag
Put plainly: microscale thermophoresis; GC-MS detection of farnesal. The format is binding, synthetic construct. (Microscale thermophoresis detects binding through changes in fluorescence in a small temperature gradient.)

Regarding `CC(C)=CCC/C(C)=C/CC/C(C)=C/CSc1ccccc1C(=O)O` [salirasib], binding was characterised by a dissociation constant (Kd) of 12 ± 0.2 µM.
